From patent publication US20220175761A1, “BI-LIGAND DRUG CONJUGATE AND USE THEREOF” (COHERENT BIOPHARMA (SUZHOU), LIMITED, priority 2019, published 2022)
Numbered stars: 1 amine (or outer) side, 2 acyl side, 3 side chain; on linkers, the order of the positions; unused ones are H or OH. Bridge positions count the residues as written; N and C are the ends. Square brackets hold non-standard residues; d marks the D form. Side chains are listed from the residue outwards. Peptide text beside a SMILES is read from it. I, II: the chains in the order shown. * marks the point of attachment. EuK = O=C(O)CC[C@H](NC(=O)N[C@@H](CCCCN*)C(=O)O)C(=O)O; Pteroyl = Nc1nc2ncc(CNc3ccc(C(=O)*)cc3)nc2c(=O)[nH]1; Dolaproine = CO[C@@H]([C@@H]1CCCN1)[C@@H](C)C(=O)O; Dil = CC[C@H](C)[C@H](NC)[C@@H](CC(=O)O)OC; X3 = O=C1CC([*:2])C(=O)N1CCCCCC(=O)[*:1]; γGlu = O=C(O)[C@H](CCC(=O)[*:2])N[*:1]; PABC = O=C(OCc1ccc(N[*:1])cc1)[*:2]; X1 = C[C@@H](N*)[C@@H](O)c1ccccc1; X2 = O=C(Cc1ccc(CN[*:1])cc1)[*:2]; Cit = NC(=O)NCCC[C@H](N)C(=O)O; NMeV = CN[C@H](C(=O)O)C(C)C; CO = O=C([*:1])[*:2]

Columns and labels:
[1] = system: A549, Hela, SCLC-21H, U-2 OS, T-47D and NCI-H460 tumor cell lines; assay: Inhibition of tumor cell expansion, CCK8 (CB-18G); format: cell-based, human
Description: Cell lines: A549 human lung cancer cells, Hela human cervical cancer cells, SCLC-21H small cell lung cancer cells, U-2 OS human osteosarcoma cells, T-47D human breast cancer cells and NCI-H460 human lung cancer cells
The cells were prepared in advance, digested with trypsin, collected and counted; diluted with a complete cell culture medium, A549 cells, Hela cells, SCLC-21H cells and U-2 OS cells were plated at a density of 2×10^4 cells/ml, and T-47D cells and NCI-H460 cells were plated at a density of 3×10^4 cells/ml in 96-well plates; to each well of the 96-well plates, 100 μl of the diluted cell solution was added; and negative control and blank control wells were set on each plate. The 96-well plates added with the cells were placed in an incubator at 37° C., 5% CO2 for culturing overnight.
The samples were diluted with a culture medium to desired concentrations (see Table 15). […]
(§1) To each well, 15 μl (10% of the liquid volume in a well) of a color developing solution from CCK-8 was added; the plates were incubated at 37° C. for an appropriate time (try to keep the OD value in the range of 1.0-2.0); the covers of the 96-well plates were removed, and the plates were read at 450 nm on a microplate reader (Molecular Devices Spectra MAX Plus). […]

[2] = system: KB, PC-9, SPC-A1, CALU-3 and DU145 cell lines (CDX tumor models); assay: Pharmacodynamic study of CB-18G in CDX models; format: in vivo, BALB/c-nude mice; details: tail vein injection
Description: CB-18G lyophilized powder was weighed, dissolved with PBS and prepared into a sample mother solution, and the mother solution was diluted with a physiological saline for injection to a sample solution with a working concentration for later use.
Main cell lines: KB human oral epidermoid carcinoma cells, PC-9 human lung cancer cells, SPC-A1 human lung adenocarcinoma cells, CALU-3 human lung adenocarcinoma cells and DU145 human prostate cancer cells
(§2) Model construction: The cells were resuscitated, cultured, collected and counted, and the cell solution was subcutaneously injected into the right flank of BALB/c-nude mice. When the tumor grew and expanded to 80-160 mm^3, grouping and administration were performed, or rapidly expanded tumor masses were transferred and injected to mice for scale up.
(§3) Grouping: When the tumor grew to about 80-160 mm^3 on average, a grouping was performed, and a model control group and different doses of administration groups were set.
(§4) Administration: The mice were administrated via tail vein injection.
(§5) The weight of mice and the long diameter (a) and short diameter (b) of tumor mass were measured twice a week. The formula for the calculation of tumor volume (TV) is: TV=½×a×b^2.

[3] = system: A549, HuH-7, KB, LNcap, DU145 and T-47D tumor cell lines; assay: Inhibition of tumor cell expansion, CCK8 (CB-20B); format: cell-based, human
Description: Cell lines: A549 human lung cancer cells, HuH-7 human liver cancer cells, KB human oral epidermoid carcinoma cells, LNCaP human prostate cancer cells, DU145 human prostate cancer cells and T-47D human breast cancer cells
The cells were prepared in advance, digested with trypsin, collected and counted; diluted with a complete cell culture medium, A549 cells, HuH-7 cells, KB cells and DU145 cells were plated at a density of 2×10^4 cells/ml, T-47D cells were plated at a density of 1×10^5 cells/ml, and LNCaP cells were plated at a density of 6×10^4 cells/ml in 96-well plates; 100 μl of the diluted cell solution was added to each well; and negative control and blank control wells were set on each plate. The 96-well plates added with the cells were placed in an incubator at 37° C., 5% CO2 for culturing overnight.
The samples were diluted with a culture medium to desired concentrations (see Table 11). […]
as §1

[4] = system: KB, PC-9 and DU145 cell lines (CDX tumor models); assay: Pharmacodynamic study of CB-20B in CDX models; format: in vivo, BALB/c-nude mice; details: tail vein injection
Description: CB-20B lyophilized powder was weighed, dissolved with PBS and prepared into a sample mother solution, and the mother solution was diluted with a physiological saline for injection to a sample solution with a working concentration for later use.
Main cell lines: KB human oral epidermoid carcinoma cells, PC-9 human lung cancer cells and DU145 human prostate cancer cells.
as §2, with “collected,” for “collected and”, “and” for “and the cell solution was”
as §3, §4, §5

SMILES | inhibitory effect on growth and expansion of tumor cell lines ([1]; 72 hours, CCK-8) | IC50 compared between cell lines ([1]; Hela versus NCI-H460) | inhibitory effect in CDX tumor models (tumor volume) [2] | inhibitory effect on growth and expansion of tumor cell lines ([3]; 72 hours, CCK-8) | IC50 compared between cell lines ([3]; T-47D, LNcap, KB, HuH-7 and DU145 versus A549) | inhibitory effect in CDX tumor models (tumor volume) [4]
CCCC(=O)N[C@@H](Cc1ccccc1)C(=O)N[C@H]1CSSC[C@@H](C(=O)N[C@H](C(=O)N[C@@H](CCCCNC(=O)[C@H](CCC(=O)O)NC(=O)CCOCCOCCOCCOCCNC(=O)[C@H](CCC(=O)O)NC(=O)[C@H](CSC2CC(=O)N(CCCCCC(=O)N[C@H](C(=O)NC(CCCNC(N)=O)C(=O)Nc3ccc(COC(=O)N(C)[C@H](C(=O)N[C@H](C(=O)N(C)[C@@H]([C@@H](C)CC)[C@@H](CC(=O)N4CCC[C@H]4[C@H](OC)[C@@H](C)C(=O)N[C@H](C)[C@@H](O)c4ccccc4)OC)C(C)C)C(C)C)cc3)C(C)C)C2=O)NC(=O)CC[C@H](NC(=O)c2ccc(NCc3cnc4[nH]c(N)nc(=O)c4n3)cc2)C(=O)O)C(N)=O)[C@@H](C)O)NC(=O)[C@H]([C@@H](C)O)NC(=O)[C@H](CCCCN)NC(=O)[C@H](Cc2c[nH]c3ccccc23)NC(=O)[C@H](Cc2ccc(O)cc2)NC1=O (stereo partly drawn) [CB-18G] | has an inhibitory effect | significantly lower | good inhibitory effect | – | – | –
CC[C@H](C)[C@@H]([C@@H](CC(=O)N1CCC[C@H]1[C@H](OC)[C@@H](C)C(=O)N[C@H](C)[C@@H](O)c1ccccc1)OC)N(C)C(=O)[C@@H](NC(=O)[C@H](C(C)C)N(C)C(=O)OCc1ccc(NC(=O)[C@H](CCCNC(N)=O)NC(=O)[C@@H](NC(=O)CCCCCN2C(=O)CC(SC[C@H](NC(=O)[C@H](CC(=O)O)NC(=O)[C@H](CC(=O)O)NC(=O)Cc3ccc(CNC(=O)NCCCC[C@H](NC(=O)N[C@@H](CCC(=O)O)C(=O)O)C(=O)O)cc3)C(=O)N[C@@H](CCCCNC(=O)CC[C@H](NC(=O)c3ccc(NCc4cnc5[nH]c(N)nc(=O)c5n4)cc3)C(=O)O)C(N)=O)C2=O)C(C)C)cc1)C(C)C (stereo partly drawn) [CB-20B] (I: V[Cit][PABC][NMeV]V[Dil][Dolaproine]-X1 / II: {EuK-CO}-[X2]DDCK([γGlu-Pteroyl])-NH2; linker I:N-II:4 via X3) | – | – | – | has an inhibitory effect | significantly lower | good inhibitory effect
